Experimental data as given in patent US20190210996A1, “NOVEL COMPOUNDS” (GLAXOSMITHKLINE INTELLECTUAL PROPERTY DEVELOPMENT LIMITED, priority 2016, published 2019).

What was measured:
Type in all cases: cell-based
[1] = target: T1, AURKA (Homo sapiens, UniProt O14965); test: Expression proteomics in THP-1 cells: AURKA protein level
T1 construct: endogenous in cells; host or cells: THP-1
T1 sequence (O14965 1-403): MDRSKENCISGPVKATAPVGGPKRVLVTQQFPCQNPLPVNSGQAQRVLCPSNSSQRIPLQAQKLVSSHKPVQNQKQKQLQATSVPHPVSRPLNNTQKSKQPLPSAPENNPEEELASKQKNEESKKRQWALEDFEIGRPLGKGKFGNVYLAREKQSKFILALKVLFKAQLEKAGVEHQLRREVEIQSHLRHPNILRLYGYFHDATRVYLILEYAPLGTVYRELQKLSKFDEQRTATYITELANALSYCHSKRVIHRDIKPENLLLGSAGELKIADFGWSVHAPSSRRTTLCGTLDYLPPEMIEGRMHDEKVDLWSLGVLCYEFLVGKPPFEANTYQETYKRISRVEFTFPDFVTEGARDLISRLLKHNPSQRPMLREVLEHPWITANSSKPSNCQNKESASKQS
Procedure: (§1) THP-1 cells were seeded at a concentration of 3×10^6 cells in T175 flasks with 60 mL growth medium (RPMI1640+10% FBS). […] of a 10× compound solution prepared in growth medium (DMSO), CEREBLON_PROTAC) was added and the cells were treated for the indicated time points (6 or 24 h) at 37° C., 5% CO2. For harvesting the cells were collected into falcon tubes on ice, centrifuged and washed twice in cold PBS (Life technologies). After the last washing step the supernatant was removed and the pellets were snap-frozen in liquid N2 and stored at −80° C. and lysed in 2% SDS for 3 min at 95° C. in a thermomixer (Thermo Fisher Scientific), followed by digestion of DNA with Benzonase at 37° C. for 1.5 h. Lysate was cleared by centrifugation an protein concentration in supernatant was determined by BCA assay.
(§2) Leukemia 25, 89-100 (2011).
(§3) Samples were dried in vacuo and resuspended in 0.05% trifluoroacetic acid in water. Of the sample, 50% was injected into an Ultimate3000 nanoRLSC (Dionex, Sunnyvale, Calif.) coupled to a Q Exactive HF (Thermo Fisher Scientific). Peptides were trapped on a 5 mm×300 μm C18 column (Pepmap100, 5 μm, 300 Å, Thermo Fisher Scientific) in water with 0.05% TFA at 60° C. Separation was performed on custom 50 cm×[…] (ID) reversed-phase columns (Reprosil) at 55° C. Gradient elution was performed from 2% acetonitrile to 40% acetonitrile in 0.1% formic acid and 3.5% DMSO over 2 hours. Samples were online injected into Q-Exactive HF mass spectrometers operating with a data-dependent top 10 method. MS spectra were acquired by using 60.000 resolution and an ion target of 3×10^6. Higher energy collisional dissociation (HCD) scans were performed with 35% NCE at 30.000 resolution (at m/z 200), and the ion target settings was set to 2×10^5 so as to avoid coalescence (Werner, T. et al. Ion Coalescence of Neutron Encoded TMT 10-Plex Reporter Ions. Anal. Chem. 86, 3594-3601 (2014).
(§4) The first search was performed with 30 parts per million mass tolerance for peptide precursors and 30 mD (HCD) mass tolerance for fragment ions followed by a final search using recalibrated data with a 10 parts per million mass tolerance for peptide precursors and 20 mD (HCD) mass tolerance for fragment ions. Carbamidomethylation of cysteine residues and TMT modification of lysine residues were set as fixed modifications and methionine oxidation, and N-terminal acetylation of proteins and TMT modification of peptide N-termini were set as variable modifications. […]
(§5) Nat Biotech 29, 255-265 (2011). this measure is referred to as ion area Savitski, M. M. et al. Delayed Fragmentation and Optimized Isolation Width Settings for Improvement of Protein Identification and Accuracy of Isobaric Mass Tag Quantification on Orbitrap-Type Mass Spectrometers. […]

[2] = target: T2, BTK (Homo sapiens, UniProt Q06187); test: Expression proteomics in THP-1 cells: BTK protein level
T2 construct: endogenous in cells; host or cells: THP-1
Procedure: as §1, §2, §3, §4, §5

[3] = target: T3, IRAK3 (Homo sapiens, UniProt Q9Y616); test: Expression proteomics in THP-1 cells: IRAK3 protein level; conditions: IRAK3, THP-1 cells
T3 construct: endogenous in cells; host or cells: THP-1
T3 sequence (Q9Y616 1-596): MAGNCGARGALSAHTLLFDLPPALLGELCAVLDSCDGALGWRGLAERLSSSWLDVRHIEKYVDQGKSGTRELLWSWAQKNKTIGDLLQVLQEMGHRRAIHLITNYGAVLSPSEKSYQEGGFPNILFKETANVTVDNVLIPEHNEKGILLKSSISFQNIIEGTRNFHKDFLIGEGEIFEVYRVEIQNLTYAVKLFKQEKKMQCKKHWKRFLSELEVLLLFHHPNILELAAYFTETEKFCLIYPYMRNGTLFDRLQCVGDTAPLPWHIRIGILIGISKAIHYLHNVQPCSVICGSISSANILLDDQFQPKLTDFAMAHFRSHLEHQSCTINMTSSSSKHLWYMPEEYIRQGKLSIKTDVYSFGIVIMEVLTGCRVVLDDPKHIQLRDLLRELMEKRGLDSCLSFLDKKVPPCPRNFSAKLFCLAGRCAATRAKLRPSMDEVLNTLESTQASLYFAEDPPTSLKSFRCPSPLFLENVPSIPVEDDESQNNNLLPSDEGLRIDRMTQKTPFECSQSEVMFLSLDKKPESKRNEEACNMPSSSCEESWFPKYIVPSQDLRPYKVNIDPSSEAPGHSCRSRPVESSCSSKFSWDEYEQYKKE
Procedure: as §1, §2, §3, §4, §5

[4] = target: T4, ABL1 (Homo sapiens, UniProt P00519); test: Expression proteomics in THP-1 cells: ABL1 protein level; conditions: ABL1, THP-1 cells
T4 construct: endogenous in cells; host or cells: THP-1
Procedure: as §1, §2, §3, §4, §5

T4 sequence (P00519 whole entry): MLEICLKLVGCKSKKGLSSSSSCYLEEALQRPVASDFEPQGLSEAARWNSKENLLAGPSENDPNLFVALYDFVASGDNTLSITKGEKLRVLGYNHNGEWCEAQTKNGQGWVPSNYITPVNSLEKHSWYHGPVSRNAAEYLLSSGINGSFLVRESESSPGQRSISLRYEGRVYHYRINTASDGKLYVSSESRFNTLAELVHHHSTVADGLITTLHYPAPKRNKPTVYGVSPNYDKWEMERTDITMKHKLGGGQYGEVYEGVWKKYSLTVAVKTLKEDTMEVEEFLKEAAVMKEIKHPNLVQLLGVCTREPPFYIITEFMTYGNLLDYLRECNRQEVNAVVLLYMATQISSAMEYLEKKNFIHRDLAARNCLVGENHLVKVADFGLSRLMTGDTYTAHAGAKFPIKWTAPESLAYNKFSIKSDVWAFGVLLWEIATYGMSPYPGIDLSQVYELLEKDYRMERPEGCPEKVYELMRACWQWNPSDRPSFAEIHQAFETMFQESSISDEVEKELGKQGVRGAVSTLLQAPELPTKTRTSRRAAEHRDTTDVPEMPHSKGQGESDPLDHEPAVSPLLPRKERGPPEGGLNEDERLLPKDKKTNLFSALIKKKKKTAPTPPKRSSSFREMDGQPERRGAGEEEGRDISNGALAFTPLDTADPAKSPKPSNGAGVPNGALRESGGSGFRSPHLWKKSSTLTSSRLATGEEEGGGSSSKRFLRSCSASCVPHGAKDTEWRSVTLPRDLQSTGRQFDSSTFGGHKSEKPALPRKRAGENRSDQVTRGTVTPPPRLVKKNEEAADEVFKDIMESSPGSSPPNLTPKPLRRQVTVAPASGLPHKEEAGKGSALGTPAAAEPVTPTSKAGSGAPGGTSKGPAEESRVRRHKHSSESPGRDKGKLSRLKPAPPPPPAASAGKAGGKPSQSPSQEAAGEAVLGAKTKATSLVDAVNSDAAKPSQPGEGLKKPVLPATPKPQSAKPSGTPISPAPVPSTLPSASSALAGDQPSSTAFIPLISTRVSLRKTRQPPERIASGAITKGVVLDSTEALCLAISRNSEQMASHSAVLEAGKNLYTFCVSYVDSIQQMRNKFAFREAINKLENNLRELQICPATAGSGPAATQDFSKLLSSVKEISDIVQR
T2 sequence (Q06187 whole entry): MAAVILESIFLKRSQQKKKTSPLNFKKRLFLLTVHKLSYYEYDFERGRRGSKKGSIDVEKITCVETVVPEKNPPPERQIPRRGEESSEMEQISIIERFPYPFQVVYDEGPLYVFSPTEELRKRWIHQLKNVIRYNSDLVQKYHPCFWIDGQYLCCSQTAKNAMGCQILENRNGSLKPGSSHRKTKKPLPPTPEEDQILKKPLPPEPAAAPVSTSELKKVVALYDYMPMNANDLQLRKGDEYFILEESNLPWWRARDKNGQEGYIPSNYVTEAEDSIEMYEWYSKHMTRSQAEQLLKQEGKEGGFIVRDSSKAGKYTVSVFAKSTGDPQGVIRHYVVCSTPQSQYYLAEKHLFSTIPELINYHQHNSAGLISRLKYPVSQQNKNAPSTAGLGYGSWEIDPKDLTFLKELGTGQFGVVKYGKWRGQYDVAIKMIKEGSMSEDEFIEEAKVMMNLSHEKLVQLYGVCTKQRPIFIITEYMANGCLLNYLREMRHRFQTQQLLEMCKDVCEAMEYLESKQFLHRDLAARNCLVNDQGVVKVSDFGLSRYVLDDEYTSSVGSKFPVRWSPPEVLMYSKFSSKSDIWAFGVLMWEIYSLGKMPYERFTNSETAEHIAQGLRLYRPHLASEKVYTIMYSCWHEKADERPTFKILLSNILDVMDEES

- log2 rel. fc. to vehicle control ([1]; 24 h 0.1 μM, n = 1): −1.45
- log2 rel. fc. to vehicle control ([1]; 24 h 0.1 μM, n = 2): −1.00
- log2 rel. fc. to vehicle control ([1]; 24 h 1 μM, n = 1): −2.10
- log2 rel. fc. to vehicle control ([1]; 24 h 1 μM, n = 2): −1.93
- log2 rel. fc. to vehicle control ([2]; 24 h 0.1 μM, n = 1): −1.65
- log2 rel. fc. to vehicle control ([2]; 24 h 0.1 μM, n = 2): −1.67
- log2 rel. fc. to vehicle control ([2]; 24 h 1 μM, n = 1): −2.02
- log2 rel. fc. to vehicle control ([2]; 24 h 1 μM, n = 2): −1.86
- log2 rel. fc. to vehicle control ([3]; 24 h 0.1 μM, n = 1): −2.25
- log2 rel. fc. to vehicle control ([3]; 24 h 0.1 μM, n = 2): −1.82
- log2 rel. fc. to vehicle control ([3]; 24 h 1 μM, n = 1): −1.65
- log2 rel. fc. to vehicle control ([3]; 24 h 1 μM, n = 2): −1.86
- log2 rel. fc. to vehicle control ([4]; 24 h 0.1 μM, n = 1): −0.72
- log2 rel. fc. to vehicle control ([4]; 24 h 0.1 μM, n = 2): −0.70
- log2 rel. fc. to vehicle control ([4]; 24 h 1 μM, n = 1): −1.43
- log2 rel. fc. to vehicle control ([4]; 24 h 1 μM, n = 2): −1.63
Compound: CNC(=O)c1ccccc1Nc1nc(Nc2ccc(N3CCN(CCOCCOCCOCCOCC(=O)Nc4cccc5c4CN(C4CCC(=O)NC4=O)C5=O)CC3)cc2)ncc1Cl.O=CO (stereo not shown) [CEREBLON_PROTAC, 14-(4-(4-((5-Chloro-4-((2-(methylcarbamoyl)phenyl)amino)pyrimidin-2-yl)amino)phenyl)piperazin-1-yl)-N-(2-(2,6-dioxopiperidin-3-yl)-1-oxoisoindolin-4-yl)-3,6,9,12-tetraoxatetradecan-1-amide formate]
